Data taken from publication PMC7211198, “Phase 1b study of a small molecule antagonist of human chemokine (C-C motif) receptor 2 (PF-04136309) in combination with nab-paclitaxel/gemcitabine in first-line treatment of metastatic pancreatic ductal adenocarcinoma” (Investigational New Drugs, 2019).

Assay: Safety and tolerability (TEAEs, SAEs, DLTs, RP2D) in phase Ib study
Type: in vivo, human
Conditions: 500 mg BID + nab-P/Gem
Excerpt: Safety assessments included collection of adverse events (AEs), serious AEs (SAEs), vital signs and physical examination, electrocardiogram (12-lead), laboratory assessments, including pregnancy test, and verification of concomitant treatments. A patient was considered as DLT-evaluable if the patient experienced a DLT or if otherwise, in the absence of a DLT, the patient received at least 85% of the planned doses of each study drug in the first 28-day cycle. DLTs were defined as any of the following events occurring in the first cycle of treatment (days 1 through 28) and attributed (i.e., judged to be at least possibly related) to the combination of PF-04136309 plus nab-paclitaxel/gemcitabine, where relationship with the combination could not be ruled out. DLTs were hematologic events of grade 4 neutropenia lasting >5 days; febrile neutropenia; grade ≥ 3 neutropenic infection; grade ≥ 3 thrombocytopenia with grade ≥ 2 bleeding; grade 4 thrombocytopenia; and nonhematologic events of grade 3 toxicities. Exceptions included nausea and vomiting responding to prophylaxis and/or treatment and lasting <7 days from each chemotherapy infusion period; diarrhea responding to treatment and lasting <7 days; grade 3 fatigue lasting <7 days; grade 3 QT interval corrected for heart rate prolongation (>500 msec) persisting after correction of any reversible causes; and/or grade 3 aspartate aminotransferase (AST) and/or alanine aminotransferase (ALT) increase lasting ≤7 days. All grade 4 toxicities and a delay of >2 weeks in receiving the next scheduled cycle due to persistent treatment-related toxicities were considered DLTs. AEs meeting DLT criteria in the dose-expansion phase included grade 3 events of diarrhea, hypokalemia, and dysesthesia and grade 4 hypoxia. […] AEs were graded according to the National Cancer Institute Common Terminology Criteria for Adverse Events, version 4.03.

With `O=C(NCC(=O)N1CC[C@H](N[C@H]2CC[C@@](O)(c3ccc(-c4ncccn4)cn3)CC2)C1)c1cccc(C(F)(F)F)c1` [PF-04136309] the DLT (n = 17, first cycle (days 1 through 28)) was 3 (17.6) n (%), the “ALT increase, grade ≥3” value (n = 17, treatment-related TEAE) was 3 (17.6) n (%) and the “AST increase, grade ≥3” value (n = 17, treatment-related TEAE) was 3 (17.6) n (%). For the same molecule, the “Anemia, grade ≥3” value (n = 17, treatment-related TEAE) was 4 (23.5) n (%), the “Fatigue, grade ≥3” value (n = 17, treatment-related TEAE) was 4 (23.5) n (%) and the “Leukopenia, grade ≥3” value (n = 17, treatment-related TEAE) was 2 (11.8) n (%). The “Lymphopenia, grade ≥3” value (n = 17, treatment-related TEAE) was 4 (23.5) n (%), the “Neutropenia, grade ≥3” value (n = 17, treatment-related TEAE) was 2 (11.8) n (%) and the “Abdominal pain, Grade 1” value (all-causality SAE) was 0 n (%). For the same molecule, the “Abdominal pain, Grade 2” value (all-causality SAE) was 0 n (%), the “Abdominal pain, Grade 3” value (all-causality SAE) was 2 (11.8) n (%) and the “Abdominal pain, Grade 4” value (all-causality SAE) was 0 n (%). For the same molecule, the “Abdominal pain, Grade 5” value (all-causality SAE) was 0 n (%), the “Abdominal pain, Total” value (all-causality SAE) was 2 (11.8) n (%) and the “Any SAE, Grade 1” value (all-causality SAE) was 1 (5.9) n (%). The “Any SAE, Grade 2” value (all-causality SAE) was 1 (5.9) n (%), the “Any SAE, Grade 3” value (all-causality SAE) was 7 (41.2) n (%) and the “Any SAE, Grade 4” value (all-causality SAE) was 1 (5.9) n (%). For the same molecule, the “Any SAE, Grade 5” value (all-causality SAE) was 1 (5.9) n (%), the “Any SAE, Total” value (all-causality SAE) was 11 (64.7) n (%) and the “Chest pain, Grade 1” value (all-causality SAE) was 0 n (%). For the same molecule, the “Chest pain, Grade 2” value (all-causality SAE) was 0 n (%), the “Chest pain, Grade 3” value (all-causality SAE) was 1 (5.9) n (%) and the “Chest pain, Grade 4” value (all-causality SAE) was 0 n (%). For the same molecule, the “Chest pain, Grade 5” value (all-causality SAE) was 0 n (%), the “Chest pain, Total” value (all-causality SAE) was 1 (5.9) n (%) and the “Dyspnea, Grade 1” value (all-causality SAE) was 0 n (%). The “Dyspnea, Grade 2” value (all-causality SAE) was 0 n (%), the “Dyspnea, Grade 3” value (all-causality SAE) was 1 (5.9) n (%) and the “Dyspnea, Grade 4” value (all-causality SAE) was 0 n (%). The “Dyspnea, Grade 5” value (all-causality SAE) was 0 n (%), the “Dyspnea, Total” value (all-causality SAE) was 1 (5.9) n (%) and the “Episcleritis, Grade 1” value (all-causality SAE) was 0 n (%). The “Episcleritis, Grade 2” value (all-causality SAE) was 1 (5.9) n (%), the “Episcleritis, Grade 3” value (all-causality SAE) was 0 n (%) and the “Episcleritis, Grade 4” value (all-causality SAE) was 0 n (%). For the same molecule, the “Episcleritis, Grade 5” value (all-causality SAE) was 0 n (%), the “Episcleritis, Total” value (all-causality SAE) was 1 (5.9) n (%) and the “Hypoxia, Grade 1” value (all-causality SAE) was 0 n (%). For the same molecule, the “Hypoxia, Grade 2” value (all-causality SAE) was 0 n (%), the “Hypoxia, Grade 3” value (all-causality SAE) was 0 n (%) and the “Hypoxia, Grade 4” value (all-causality SAE) was 1 (5.9) n (%). For the same molecule, the “Hypoxia, Grade 5” value (all-causality SAE) was 0 n (%), the “Hypoxia, Total” value (all-causality SAE) was 1 (5.9) n (%) and the “Klebsiella bacteremia, Grade 1” value (all-causality SAE) was 0 n (%). For the same molecule, the “Klebsiella bacteremia, Grade 2” value (all-causality SAE) was 0 n (%), the “Klebsiella bacteremia, Grade 3” value (all-causality SAE) was 1 (5.9) n (%) and the “Klebsiella bacteremia, Grade 4” value (all-causality SAE) was 0 n (%). The “Klebsiella bacteremia, Grade 5” value (all-causality SAE) was 0 n (%), the “Klebsiella bacteremia, Total” value (all-causality SAE) was 1 (5.9) n (%) and the “Liver abscess, Grade 1” value (all-causality SAE) was 0 n (%). The “Liver abscess, Grade 2” value (all-causality SAE) was 0 n (%), the “Liver abscess, Grade 3” value (all-causality SAE) was 1 (5.9) n (%) and the “Liver abscess, Grade 4” value (all-causality SAE) was 0 n (%). For the same molecule, the “Liver abscess, Grade 5” value (all-causality SAE) was 0 n (%), the “Liver abscess, Total” value (all-causality SAE) was 1 (5.9) n (%) and the “Musculoskeletal pain, Grade 1” value (all-causality SAE) was 0 n (%). For the same molecule, the “Musculoskeletal pain, Grade 2” value (all-causality SAE) was 0 n (%), the “Musculoskeletal pain, Grade 3” value (all-causality SAE) was 1 (5.9) n (%) and the “Musculoskeletal pain, Grade 4” value (all-causality SAE) was 0 n (%). The “Musculoskeletal pain, Grade 5” value (all-causality SAE) was 0 n (%), the “Musculoskeletal pain, Total” value (all-causality SAE) was 1 (5.9) n (%) and the “Neck pain, Grade 1” value (all-causality SAE) was 0 n (%). The “Neck pain, Grade 2” value (all-causality SAE) was 0 n (%), the “Neck pain, Grade 3” value (all-causality SAE) was 1 (5.9) n (%) and the “Neck pain, Grade 4” value (all-causality SAE) was 0 n (%). The “Neck pain, Grade 5” value (all-causality SAE) was 0 n (%), the “Neck pain, Total” value (all-causality SAE) was 1 (5.9) n (%) and the “Pneumonia, Grade 1” value (all-causality SAE) was 0 n (%). For the same molecule, the “Pneumonia, Grade 2” value (all-causality SAE) was 0 n (%), the “Pneumonia, Grade 3” value (all-causality SAE) was 0 n (%) and the “Pneumonia, Grade 4” value (all-causality SAE) was 0 n (%). For the same molecule, the “Pneumonia, Grade 5” value (all-causality SAE) was 1 (5.9) n (%), the “Pneumonia, Total” value (all-causality SAE) was 1 (5.9) n (%) and the “Pneumonitis, Grade 1” value (all-causality SAE) was 0 n (%). For the same molecule, the “Pneumonitis, Grade 2” value (all-causality SAE) was 0 n (%), the “Pneumonitis, Grade 3” value (all-causality SAE) was 3 (17.6) n (%) and the “Pneumonitis, Grade 4” value (all-causality SAE) was 0 n (%). For the same molecule, the “Pneumonitis, Grade 5” value (all-causality SAE) was 0 n (%), the “Pneumonitis, Total” value (all-causality SAE) was 3 (17.6) n (%) and the “Pyrexia, Grade 1” value (all-causality SAE) was 1 (5.9) n (%). For the same molecule, the “Pyrexia, Grade 2” value (all-causality SAE) was 1 (5.9) n (%), the “Pyrexia, Grade 3” value (all-causality SAE) was 0 n (%) and the “Pyrexia, Grade 4” value (all-causality SAE) was 0 n (%). The “Pyrexia, Grade 5” value (all-causality SAE) was 0 n (%), the “Pyrexia, Total” value (all-causality SAE) was 2 (11.8) n (%) and the “Small intestinal obstruction, Grade 1” value (all-causality SAE) was 0 n (%). The “Small intestinal obstruction, Grade 2” value (all-causality SAE) was 0 n (%), the “Small intestinal obstruction, Grade 3” value (all-causality SAE) was 1 (5.9) n (%) and the “Small intestinal obstruction, Grade 4” value (all-causality SAE) was 0 n (%). For the same molecule, the “Small intestinal obstruction, Grade 5” value (all-causality SAE) was 0 n (%), the “Small intestinal obstruction, Total” value (all-causality SAE) was 1 (5.9) n (%) and the “ALT increase, Grade 1” value (all-causality TEAE) was 1 (5.9) n (%). The “ALT increase, Grade 2” value (all-causality TEAE) was 2 (11.8) n (%), the “ALT increase, Grade 3” value (all-causality TEAE) was 3 (17.6) n (%) and the “ALT increase, Grade 4” value (all-causality TEAE) was 1 (5.9) n (%). For the same molecule, the “ALT increase, Grade 5” value (all-causality TEAE) was 0 n (%), the “ALT increase, Total” value (all-causality TEAE) was 7 (41.2) n (%) and the “AST increase, Grade 1” value (all-causality TEAE) was 0 n (%). For the same molecule, the “AST increase, Grade 2” value (all-causality TEAE) was 1 (5.9) n (%), the “AST increase, Grade 3” value (all-causality TEAE) was 5 (29.4) n (%) and the “AST increase, Grade 4” value (all-causality TEAE) was 0 n (%). For the same molecule, the “AST increase, Grade 5” value (all-causality TEAE) was 0 n (%), the “AST increase, Total” value (all-causality TEAE) was 6 (35.3) n (%) and the “Abdominal pain, Grade 1” value (all-causality TEAE) was 0 n (%). For the same molecule, the “Abdominal pain, Grade 2” value (all-causality TEAE) was 3 (17.6) n (%), the “Abdominal pain, Grade 3” value (all-causality TEAE) was 3 (17.6) n (%) and the “Abdominal pain, Grade 4” value (all-causality TEAE) was 0 n (%). The “Abdominal pain, Grade 5” value (all-causality TEAE) was 0 n (%), the “Abdominal pain, Total” value (all-causality TEAE) was 6 (35.3) n (%) and the “Alopecia, Grade 1” value (all-causality TEAE) was 7 (41.2) n (%). For the same molecule, the “Alopecia, Grade 2” value (all-causality TEAE) was 3 (17.6) n (%) and the “Alopecia, Grade 3” value (all-causality TEAE) was 0 n (%).
